Data as given in patent US11766430B2, “Methods of using a phenoxypropylamine compound to treat pain” (Minerva Neurosciences, Inc., priority 2018, dated 2023).
Entries after “also recorded” stand apart in the source; their conditions may differ.

Key:
Type in all cases: in vivo, Male Sprague Dawley rats
[1] = tested on: paclitaxel-induced peripheral neuropathic pain in rats; experiment: Reversal of paclitaxel-induced peripheral neuropathic pain, paw withdrawal threshold, chronic administration (Example 6); settings: hydrochloride; for PWT compared to vehicle (in words): days 14, 21 and 28, 2 hours post dosing
Description: (§1) Male Sprague Dawley rats from Envigo were used in the study. Animals were received at approximately 250 g and housed 3 per cage upon arrival. All rats were examined, handled, and weighed prior to initiation of the study to assure adequate health and suitability. During the course of the study, 12/12 light/dark cycles was maintained. The room temperature was be maintained between 20 and 23° C. with a relative humidity maintained around 50%. Chow and water was provided ad libitum for the duration of the study. All testing was performed during the animal's light cycle phase.
(§2) Paclitaxel (2 mg/kg) was purchased from Biolyse Pharma and injected i.p. on four alternate days (day 1, 3, 5 and 7) for a total of 4 injections at a dose volume of 1 mL/kg.
(§3) Gabapentin (100 mg/kg) was dissolved in saline and administered orally at a dose volume of 1 mL/kg. For prevention study, gabapentin was administered on day 14, sixty minutes prior to test. For reversal study, gabapentin was administered once daily for 2 weeks. On test days it was administered 60 minutes prior to test.
Reversal study: MIN-117 (1, 3 and 10 mg/kg) was formulated in 0.5% (w/v) hydroxypropylmethyl cellulose (HPMC) 8°-120 centipoises in water and administered i.p once daily for 2 weeks at a dose volume of 1 mL/kg. On test days, MIN-117 was administered 2 hours prior to test.
(§4) Rats were administered paclitaxel (2 mg/kg) on four alternate days (days 1, 3, 5 and 7). Baseline and post treatment Paw Withdrawal Threshold (PWT) were evaluated using von Frey filaments (Semmes-Weinstein filaments, Stoelting, Wood Dale, Ill., USA) of varying stiffness (0.4, 0.7, 1.2, 2.0, 3.6, 5.5, 8.5, 10, 15, 26 g). Animals were placed on a perforated metallic platform and allowed to acclimate to their surroundings for a minimum of 15 minutes before each test session. Each filament was presented perpendicular to the plantar surface with sufficient force to cause slight buckling against the paw, and then held until a positive response is noted (paw sharply withdrawn). As described by Chaplan et al. 1994, once the threshold was crossed, the 2 responses straddling the threshold are retrospectively designated as the first 2 responses. Four additional responses were measured to stimuli varied sequentially up or down based on the animal's response. The 6 responses in the immediate vicinity of the threshold were used to calculate the 50% g threshold: 50% g threshold=(10^[Xf+k*d])/10000 Xf is the final filament used (in log units). The parameter k is from the Appendix 1 in Chaplan and was determined by the pattern of the von Frey responses (e.g. OXOXOX where ‘O’ indicates no response and ‘X’ denotes a withdrawal). The parameter d is the difference between stimuli which Chaplan used a constant d=0.224. To accommodate for the use of the 10 g and 26 g filaments, the exact difference between stimuli were used.
(§5) PWT was measured according to the Schematics in FIG. 9 (prevention) and FIG. 10 (reversal study).
(§6) Data was analyzed by analysis of variance (ANOVA) followed by post-hoc comparisons where appropriate. An effect will be considered significant if p<0.05. Data was represented as the mean and standard error to the mean (s.e.m). Statistical outliers that fell above or below 2 standard deviations of the mean were identified but not removed from the final analysis.

[2] = Body weight, reversal study (Example 6); settings: 1, 3 and 10 mg/kg i.p. once daily for 2 weeks; repeated measures ANOVA
Description: (§7) Body weight (BW) was measured daily during treatment and twice a week after cessation of dosing.
as §6

[3] = tested on: paclitaxel-induced peripheral neuropathic pain in rats; experiment: Prevention of paclitaxel-induced peripheral neuropathic pain, paw withdrawal threshold, chronic administration (Example 6); settings: for PWT compared to vehicle (in words): days 10 and 14
Description: as §1, §2, §3
Prevention study: MIN-117 (10 mg/kg) was formulated in 0.5% (w/v) hydroxypropylmethyl cellulose (HPMC) 8°-120 centipoises in water and was administered i.p once daily for 7 or 14 days at a dose volume of 1 mL/kg. On test days, MIN-117 was administered 2 hours prior to test.
as §4, with “The 6 responses in the immediate vicinity of the threshold were used to calculate the 50% g threshold: 50% g threshold=(10^[Xf+k*d])/10000 Xf is the final filament used (in log units).” left out, “The parameter d is the difference between stimuli which Chaplan used a constant d=0.224. To accommodate for the use of the 10 g and 26 g filaments, the exact difference between stimuli were used.” left out
as §5
Data was analyzed by analysis of variance (ANOVA) followed by post-hoc comparisons where appropriate. […]

[4] = Body weight, prevention study (Example 6); settings: 10 mg/kg i.p. once daily for 7 or 14 days; effect seen from day 2 until day 11
Description: as §7, §6

[5] = Body weight during the chemotherapy induced neuropathic pain study (Example 5); settings: paclitaxel days 1, 3, 5, 7; test compound on day 14; repeated measures ANOVA
Description: as §1, with “(from Envigo, Ind., USA)” for “from Envigo”, “12 h/12 h” for “12/12”, “phase. Every effort was made to minimize suffering of animals. Rats with baseline PWT less than 12 g were not included in the study. Rats were balanced by body weight and by their pre-paclitaxel PWT values. ANOVA found no significant differences between the treatment groups.” for “phase.”

## Cc1nnc(-c2cc3c(OC[C@@H](O)CN4CCC(c5ccc(Cl)c(Cl)c5)CC4)cccc3o2)o1.Cl [MIN-117, (2S)-1-(4-(3,4-dichlorophenyl)piperidin-1-yl)-3-((2-(5-methyl-1,3,4-oxadiazol-2-yl)benzofuran-4-yl)oxy)propan-2-ol hydrochloride]
[1]; 1 mg/kg i.p. once daily for 2 weeks
  PWT compared to vehicle (in words): significant increase in PWT; also recorded: significantly higher PWT
[1]; 3 mg/kg i.p. once daily for 2 weeks
  PWT compared to vehicle (in words): significant increase in PWT; also recorded: significantly higher PWT
[1]; 10 mg/kg i.p. once daily for 2 weeks
  PWT compared to vehicle (in words): significant increase in PWT; also recorded: significantly higher PWT
[1]; 1, 3 and 10 mg/kg i.p., day 35, one week after cessation of treatment
  PWT after cessation of treatment (in words): no analgesic effects; also recorded: returned to vehicle levels
[2]
  Body weight during treatment compared to vehicle (in words): no significant treatment effect
[3]; 10 mg/kg i.p. for 7 or 14 days, day 21, one week or two weeks after cessation of treatment, hydrochloride
  PWT after cessation of treatment (in words): no analgesic effects; also recorded: returned to vehicle levels
[3]; 10 mg/kg i.p. once daily for one week (7 days) starting one day prior to paclitaxel
  PWT compared to vehicle (in words): significantly higher PWT
[3]; 10 mg/kg i.p. once daily for two weeks (14 days) starting one day prior to paclitaxel, 2 hours post dosing
  PWT compared to vehicle (in words): significantly higher PWT
[4]
  Body weight compared to vehicle (in words): decrease in body weight
[5]
  Body weight during the study, between groups (in words): no significant difference between groups
